According to PubChem BioAssay AID328 (DTP/NCI, 2004):
Inconclusive results and toxic doses are left out. How the source made its calls: active means survival T/C of 150% or more; inactive means T/C below 125% in these data.

Tested on: BDF1 mice, P388 leukemia ip, median survival T/C
Experiment: NCI In Vivo Anticancer Drug Screen. Data for tumor model P388 Leukemia (intraperitoneal) in B6D2F1 (BDF1) mice
Details: endpoint: median survival time, higher = longer survival
Protocol: The antitumor activity of compounds was measured in mice bearing transplantable tumors. Survival or tumor size were measured and the results are expressed as the measurement made in the treated group (T) divided by the measurement made in the vehicle treated control group (C). The tumor model used in this assay is P388 Leukemia (intraperitoneal) in B6D2F1 (BDF1) mice

[1] = dose: 50.0 mg/kg/injection, schedule: Q01DX009 (ip), vehicle: saline
[2] = dose: 100.0 mg/kg/injection, schedule: Q01DX009 (ip), vehicle: saline
[3] = dose: 100.0 mg/kg/injection, schedule: Q04DX003 (ip), vehicle: saline
[4] = dose: 200.0 mg/kg/injection, schedule: Q04DX003 (ip), vehicle: saline
[5] = dose: 100.0 mg/kg/injection, schedule: Q01DX009 (ip), vehicle: saline with Tween-80
[6] = dose: 200.0 mg/kg/injection, schedule: Q01DX009 (ip), vehicle: saline with Tween-80
[7] = dose: 100.0 mg/kg/injection, schedule: Q01DX009 (ip), vehicle: Klucel (hydroxypropylcellulose) (HPC)
[8] = dose: 100.0 mg/kg/injection, schedule: Q04DX003 (ip), vehicle: Klucel (hydroxypropylcellulose) (HPC)
[9] = dose: 200.0 mg/kg/injection, schedule: Q01DX009 (ip), vehicle: Klucel (hydroxypropylcellulose) (HPC)
[10] = dose: 400.0 mg/kg/injection, schedule: Q01DX009 (ip), vehicle: Klucel (hydroxypropylcellulose) (HPC)
[11] = dose: 100.0 mg/kg/injection, schedule: Q04DX003 (sc), vehicle: steriod suspending solution
[12] = dose: 200.0 mg/kg/injection, schedule: Q04DX003 (sc), vehicle: steriod suspending solution
[13] = dose: 400.0 mg/kg/injection, schedule: Q04DX003 (sc), vehicle: steriod suspending solution
[14] = dose: 50.0 mg/kg/injection, schedule: Q01DX009 (ip), vehicle: Klucel (hydroxypropylcellulose) (HPC)

Measured: T/C

CC(=O)CC(=O)NC(C)CCc1ccccc1 (stereo not given)
inactive: dose: 100.0 mg/kg/injection, schedule: Q04DX003 (ip), vehicle: saline with Tween-80 104 % of control | dose: 200.0 mg/kg/injection, schedule: Q04DX003 (ip), vehicle: saline with Tween-80 109 % of control | dose: 400.0 mg/kg/injection, schedule: Q04DX003 (ip), vehicle: saline with Tween-80 109 % of control

CC(=O)OC1C2(CC3N4C(=O)C5(CO)SSC4(CC31O)C(=O)N5C)OC(C)C(C)(C)C2=O (stereo not given)
inactive: dose: 3.13 mg/kg/injection, schedule: Q01DX009 (oral), vehicle: saline 95 % of control | dose: 6.25 mg/kg/injection, schedule: Q01DX009 (oral), vehicle: saline 100 % of control | dose: 12.5 mg/kg/injection, schedule: Q01DX009 (oral), vehicle: saline 103 % of control

Nc1ccc(CCCCc2ccc(Cl)cc2Cl)cc1
inactive: dose: 25.0 mg/kg/injection, schedule: Q01DX009 (ip), vehicle: saline 95 % of control | [1] 95 % of control | [2] 95 % of control | [3] 104 % of control | dose: 150.0 mg/kg/injection, schedule: Q01DX009 (ip), vehicle: saline 109 % of control | [4] 100 % of control

CC(CS(=O)(=O)O)NC(CO)(CO)CO (stereo not given)
inactive: [2] 87 % of control | [3] 100 % of control | [4] 109 % of control | dose: 400.0 mg/kg/injection, schedule: Q01DX009 (ip), vehicle: saline 100 % of control | dose: 400.0 mg/kg/injection, schedule: Q04DX003 (ip), vehicle: saline 90 % of control

N#CC1c2ccccc2C=NN1C(=O)N(c1ccccc1)c1ccccc1 (stereo not given)
inactive: dose: 100.0 mg/kg/injection, schedule: Q04DX003 (ip), vehicle: other 90 % of control | dose: 200.0 mg/kg/injection, schedule: Q04DX003 (ip), vehicle: other 100 % of control | dose: 400.0 mg/kg/injection, schedule: Q04DX003 (ip), vehicle: other 100 % of control

CC(=O)CC(C)=O.CC(=O)CC(C)=O.CC(=O)CC(C)=O.[In]
inactive: [3] 109 % of control | [4] 104 % of control

CSc1ncncc1N
inactive: [1] 105 % of control | [2] 105 % of control

CC(=O)OC1(C)N=NC2(CCCCC2)O1 (stereo not given)
inactive: dose: 50.0 mg/kg/injection, schedule: Q01DX009 (ip), vehicle: saline with Tween-80 102 % of control | [5] 98 % of control | [6] 112 % of control

C(#CSCc1ccccc1)SCc1ccccc1
inactive: [7] 105 % of control | [8] 87 % of control | [9] 100 % of control | dose: 200.0 mg/kg/injection, schedule: Q04DX003 (ip), vehicle: Klucel (hydroxypropylcellulose) (HPC) 100 % of control | [10] 100 % of control | dose: 400.0 mg/kg/injection, schedule: Q04DX003 (ip), vehicle: Klucel (hydroxypropylcellulose) (HPC) 91 % of control

CC(C)CCCC(C)C1CCC2C3C(=O)C=C4CC(O)CCC4(C)C3CCC12C (stereo not given)
inactive: [11] 109 % of control | [12] 104 % of control | [13] 109 % of control

CCn1c2ccc([N+](=O)[O-])cc2c2c([N+](=O)[O-])cccc21
inactive: dose: 100.0 mg/kg/injection, schedule: Q01DX001 (ip), vehicle: saline with Tween-80 110 % of control | dose: 200.0 mg/kg/injection, schedule: Q01DX001 (ip), vehicle: saline with Tween-80 100 % of control | dose: 400.0 mg/kg/injection, schedule: Q01DX001 (ip), vehicle: saline with Tween-80 94 % of control

O=C(Nc1ccc(F)cc1F)Oc1cccc2cccnc12
inactive: [14] 104 % of control | [7] 106 % of control | [9] 113 % of control | [10] 104 % of control

CN=S(=O)(OC/C=C/COS(=O)(=NC)c1ccc(C)cc1)c1ccc(C)cc1 (stereo not given)
inactive: dose: 12.5 mg/kg/injection, schedule: Q01DX009 (ip), vehicle: saline with Tween-80 95 % of control | dose: 25.0 mg/kg/injection, schedule: Q01DX009 (ip), vehicle: saline with Tween-80 110 % of control | dose: 50.0 mg/kg/injection, schedule: Q01DX009 (ip), vehicle: saline + alcohol 121 % of control | [5] 100 % of control

CCCCCC[C@H]([C@H](C)O)n1cnc2c(N)ncnc21
inactive: dose: 15.0 mg/kg/injection, schedule: Q01DX009 (ip), vehicle: saline 105 % of control | dose: 22.0 mg/kg/injection, schedule: Q01DX009 (ip), vehicle: saline 105 % of control | dose: 33.0 mg/kg/injection, schedule: Q01DX009 (ip), vehicle: saline 104 % of control | [1] 101 % of control

C=CC(=O)NC(C)C(=O)O (stereo not given)
inactive: [1] 105 % of control | [2] 105 % of control | dose: 200.0 mg/kg/injection, schedule: Q01DX009 (ip), vehicle: saline 100 % of control

O=C(O)C1C(C(=O)O)C2(Cl)C(Cl)=C(Cl)C1(Cl)C2(Cl)Cl.[Cu+2] (stereo not given)
inactive: dose: 12.5 mg/kg/injection, schedule: Q01DX009 (ip), vehicle: saline sonified 100 % of control | dose: 25.0 mg/kg/injection, schedule: Q01DX009 (ip), vehicle: saline sonified 110 % of control

O=C(N=Nc1c(O)[nH]c2c(Cl)cc(Cl)cc12)C(=O)Nc1cccc(C(F)(F)F)c1
inactive: [5] 90 % of control | [6] 96 % of control

CC(=O)[C@H]1CC[C@H]2[C@@H]3CCC4=CC(=O)CC[C@]4(C)[C@H]3CC[C@]12C
inactive: dose: 100.0 mg/kg/injection, schedule: Q01DX009 (sc), vehicle: steriod suspending solution 104 % of control | [11] 100 % of control | dose: 200.0 mg/kg/injection, schedule: Q01DX009 (sc), vehicle: steriod suspending solution 87 % of control | [12] 105 % of control | dose: 400.0 mg/kg/injection, schedule: Q01DX009 (sc), vehicle: steriod suspending solution 87 % of control | [13] 110 % of control

O=C(/C=C(\CN1CCCCC1)c1ccccc1)c1ccccc1
inactive: dose: 25.0 mg/kg/injection, schedule: Q01DX009 (ip), vehicle: Klucel (hydroxypropylcellulose) (HPC) 100 % of control | dose: 25.0 mg/kg/injection, schedule: Q04DX003 (ip), vehicle: Klucel (hydroxypropylcellulose) (HPC) 91 % of control | [14] 104 % of control | dose: 50.0 mg/kg/injection, schedule: Q04DX003 (ip), vehicle: Klucel (hydroxypropylcellulose) (HPC) 104 % of control | [7] 109 % of control | [8] 108 % of control
